Experimental data taken from PubChem BioAssay (NCI).
“And” between values parts separate entries of the source, which are not always exact repeats. Equal values may be shown once.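 All cell lines were grown in 96-well plates and treated with compound for 48 hours. Here, GI50 denotes the concentration required for 50% inhibition of growth. TGI: total growth inhibition.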

How the values were obtained:
Assay in all cases: NCI anticancer screen, dose series, 48 h
[1] = system: OVCAR-3 ovarian
[2] = system: SF-295 CNS
[3] = system: MALME-3M melanoma
[4] = system: 786-0 renal
[5] = system: HOP-92 NSCLC
[6] = system: SK-MEL-2 melanoma
[7] = system: HCT-116 colon
[8] = system: U251 CNS
[9] = system: SN12C renal
[10] = system: LOX IMVI melanoma

Compound `CC/C=C/[C@@H]1C=C[C@@H]2CCC[C@H]2[C@@H]1CC[C@H](O)[C@H](C)N` has a GI50 [1] of 1.59 µM, a TGI [1] of 2.93 µM and a GI50 [2] of 1.75 µM. The TGI [2] was 3.9 µM, the GI50 [3] was 1.35 µM and the TGI [3] was 2.95 µM. For the same compound, the GI50 [4] was 1.72 µM, the TGI [4] was 3.09 µM and the GI50 [5] was 1.41 µM. It also gave a TGI [5] of 3.89 µM, a GI50 [6] of 2.11 µM and a TGI [6] of 4.73 µM. It also gave a GI50 [7] of 1.53 µM, a TGI [7] of 2.86 µM and a GI50 [8] of 1.53 µM. The TGI [8] was 2.86 µM, the GI50 [9] was 4.25 µM and the TGI [9] was 18.6 µM. For the same compound, the GI50 [10] was 1.58 µM and the TGI [10] was 2.92 µM.

`O=C1CCCC1C(=O)Nc1ccc2ccccc2c1` (stereo not drawn) was tested, and the TGI [1] was over 100 µM, the TGI [2] was over 100 µM and the TGI [3] was over 100 µM. It also gave a TGI [4] of over 100 µM, a TGI [5] of over 100 µM and a TGI [6] of over 100 µM. For the same compound, the TGI [7] was over 100 µM, the TGI [8] was over 100 µM and the TGI [9] was over 100 µM. The TGI [10] was over 100 µM.

`CC(C)(O)Cn1c(=O)c(Oc2ccc(F)cc2F)cc2cnc(NC3CCOCC3)nc21` gave a GI50 [1] of over 25 µM, a TGI [1] of over 25 µM and a GI50 [2] of over 25 µM. The TGI [2] was over 25 µM, the GI50 [3] was over 25 µM and the TGI [3] was over 25 µM. It also gave a GI50 [4] of over 25 µM, a TGI [4] of over 25 µM and a GI50 [5] of 7.79 µM. It also gave a TGI [5] of over 25 µM, a GI50 [6] of over 25 µM and a TGI [6] of over 25 µM. For the same compound, the GI50 [7] was over 25 µM, the TGI [7] was over 25 µM and the GI50 [8] was over 25 µM. The TGI [8] was over 25 µM, the GI50 [9] was over 25 µM and the TGI [9] was over 25 µM. It also gave a GI50 [10] of over 25 µM and a TGI [10] of over 25 µM.

`COC(=O)C1=C(O)C(O)=C(C(=O)OC)CC1` gave a TGI [1] of over 100 µM, a TGI [2] of over 100 µM and a TGI [3] of over 100 µM. The TGI [4] was over 100 µM, the TGI [5] was over 100 µM and the TGI [6] was over 100 µM. For the same compound, the TGI [7] was 28.9 µM, the TGI [8] was over 100 µM and the TGI [9] was over 100 µM. For the same compound, the TGI [10] was over 100 µM.

`C=C1C(=O)O[C@@H]2[C@@H]3O[C@@](C)(CC/C=C(\C)CCC[C@@H]2C)[C@H](O)C[C@@H]13` was tested, and the GI50 [1] was 1.7 µM, the TGI [1] was 3.34 µM and the TGI [2] was 27.6 µM. It also gave a GI50 [3] of 1.76 µM, a TGI [3] of 4.11 µM and a GI50 [4] of 7.02 µM. It also gave a TGI [4] of 20.3 µM, a GI50 [5] of 1.7 µM and a TGI [5] of 4.58 µM. It also gave a GI50 [6] of 2.41 µM, a TGI [6] of 4.85 µM and a GI50 [7] of 1.49 µM. It also gave a TGI [7] of 2.87 µM, a GI50 [8] of 3.75 µM and a TGI [8] of 15.6 µM. It also gave a GI50 [9] of 2.61 µM, a TGI [9] of 10.1 µM and a GI50 [10] of 1.77 µM. It also gave a TGI [10] of 4.03 µM.

For `O=C(Nc1nc2ncn(CCOC(=O)c3ccccc3)c2c(=O)[nH]1)c1ccccc1`, the TGI [1] was over 100 µM, the TGI [2] was 54.2 µM and the TGI [3] was over 100 µM. It also gave a TGI [4] of over 100 µM, a TGI [5] of over 75.6 µM and a TGI [6] of over 100 µM. The TGI [7] was over 100 µM, the TGI [8] was over 64.8 µM and the TGI [9] was over 100 µM. For the same compound, the TGI [10] was over 100 µM.

In the case of `COc1cc(-c2cc(-c3ccc(N(C)C)cc3)nc(N3CCC(O)CC3)c2C#N)cc(OC)c1OC`, the GI50 [1] is reported as 1.46 µM, the TGI [1] is reported as 3.97 µM and the GI50 [2] is reported as 0.212 µM. For the same compound, the TGI [2] was 0.518 µM, the GI50 [3] was 0.475 µM and the TGI [3] was 1.54 µM. It also gave a GI50 [4] of 0.399 µM, a TGI [4] of over 100 µM and a GI50 [5] of 0.182 µM. The TGI [5] was 0.788 µM, the GI50 [6] was 0.37 µM and the TGI [6] was 1.07 µM. The GI50 [7] was 0.287 µM, the TGI [7] was 1.65 µM and the GI50 [8] was 0.527 µM. The TGI [8] was 2.83 µM, the GI50 [9] was 0.689 µM and the TGI [9] was 6.44 µM. For the same compound, the GI50 [10] was 0.0455 µM and the TGI [10] was 0.205 µM.

For `CCc1cc(C(N)=O)ccc1-n1nc(C(C)C)c2c(-n3cnc(-c4cnn(C)c4)c3)ccnc21`, the GI50 [1] was 2.37 µM, the TGI [1] was over 100 µM and the GI50 [2] was 0.992 µM. For the same compound, the TGI [2] was 10.3 µM, the GI50 [3] was 1.05 µM and the TGI [3] was over 31.3 µM. It also gave a GI50 [4] of 5.67 µM, a TGI [4] of over 100 µM and a GI50 [5] of 2.3 µM. It also gave a TGI [5] of 14.3 µM, a GI50 [6] of 4.41 µM and a TGI [6] of over 100 µM. For the same compound, the GI50 [7] was 0.554 µM, the TGI [7] was over 100 µM and the GI50 [8] was 3.82 µM. The TGI [8] was over 100 µM, the GI50 [9] was 0.761 µM and the TGI [9] was over 100 µM. It also gave a GI50 [10] of 0.913 µM and a TGI [10] of 5.56 µM.

In the case of `CC(=O)OC1COC(N2C(=O)C(=O)c3c(C)cc(Cl)nc32)C(OC(C)=O)C1OC(C)=O` (stereo not drawn), the TGI [1] is reported as over 100 µM, the TGI [2] is reported as over 100 µM and the TGI [3] is reported as over 100 µM. For the same compound, the TGI [4] was over 100 µM, the TGI [5] was over 100 µM and the TGI [6] was over 100 µM. The TGI [7] was over 100 µM, the TGI [8] was over 100 µM and the TGI [9] was over 100 µM. It also gave a TGI [10] of over 100 µM.

Work on `CC(C)Oc1cc(OCC(=O)O)cc(C(=O)N(CCC(N)=O)C(=O)Nc2ccc(C(=O)O)cc2OC(C)C)c1` yielded a GI50 [1] of over 100 µM, a TGI [1] of over 100 µM and a GI50 [2] of over 100 µM. It also gave a TGI [2] of over 100 µM, a GI50 [3] of over 100 µM and a TGI [3] of over 100 µM. The GI50 [4] was over 100 µM, the TGI [4] was over 100 µM and the GI50 [5] was over 100 µM. The TGI [5] was over 100 µM, the GI50 [6] was over 100 µM and the TGI [6] was over 100 µM. For the same compound, the GI50 [7] was over 100 µM, the TGI [7] was over 100 µM and the GI50 [8] was over 100 µM. It also gave a TGI [8] of over 100 µM, a GI50 [9] of over 100 µM and a TGI [9] of over 100 µM. For the same compound, the GI50 [10] was over 100 µM and the TGI [10] was over 100 µM.

`COc1ccc(/C=C2/SC(=Nc3c(C)nn(-c4ccccc4)c3N)NC2=O)cc1` showed a GI50 [1] of 2.6 µM, a TGI [1] of 5.9 µM and a GI50 [2] of 2.76 µM. For the same compound, the TGI [2] was 13.2 µM, the GI50 [3] was 3.77 µM and the TGI [3] was 22.1 µM. For the same compound, the GI50 [4] was 6.94 µM, the TGI [4] was 89.4 µM and the GI50 [5] was 1.4 µM. For the same compound, the TGI [5] was 14.4 µM, the GI50 [6] was 3.99 µM and the TGI [6] was 17.2 µM. The GI50 [7] was 3.3 µM, the TGI [7] was 12.5 µM and the GI50 [8] was 4.75 µM. For the same compound, the TGI [8] was 34.7 µM, the GI50 [9] was 8.39 µM and the TGI [9] was 55.2 µM. The GI50 [10] was 3.88 µM and the TGI [10] was 15.8 µM.

With `N#Cc1c([N+](=O)[O-])cc(C(F)(F)F)cc1[N+](=O)[O-]` the TGI [1] was 30.9 µM, the TGI [2] was 10.3 µM and the TGI [3] was 25.5 µM. For the same compound, the TGI [4] was 12.7 µM, the TGI [5] was 4.01 µM and the TGI [6] was 39.3 µM. For the same compound, the TGI [7] was 20 µM, the TGI [8] was 33.7 µM and the TGI [9] was 27.3 µM. For the same compound, the TGI [10] was 6.87 µM.

`CCN1CCC(C(=O)Nc2n[nH]c3nnc(-c4cccc(F)c4F)cc23)CC1` showed a GI50 [1] of 2.78 µM, a TGI [1] of over 14.2 µM and a GI50 [2] of 5.73 µM. It also gave a TGI [2] of over 25 µM, a GI50 [3] of over 22.6 µM and a TGI [3] of over 25 µM. It also gave a GI50 [4] of 6.32 µM, a TGI [4] of over 25 µM and a GI50 [5] of 8.03 µM. For the same compound, the TGI [5] was over 23.9 µM, the GI50 [6] was 4.84 µM and the TGI [6] was 14.2 µM. It also gave a GI50 [7] of 7.36 µM, a TGI [7] of over 25 µM and a GI50 [8] of 6.17 µM. The TGI [8] was over 25 µM, the GI50 [9] was 9.49 µM and the TGI [9] was over 25 µM. The GI50 [10] was 5.59 µM and the TGI [10] was over 25 µM.

With `CCCCc1ccc2nc(NC(=O)OC)[nH]c2c1` the GI50 [1] was 0.0228 µM, the TGI [1] was 0.0502 µM and the GI50 [2] was 0.0299 µM. For the same compound, the TGI [2] was 0.475 µM, the GI50 [3] was 0.0526 µM and the TGI [3] was 23.7 µM. The GI50 [4] was 0.0613 µM, the TGI [4] was 29.3 µM and the GI50 [5] was 0.697 µM. The TGI [5] was over 63 µM, the GI50 [6] was 0.789 µM and the TGI [6] was over 62.1 µM. For the same compound, the GI50 [7] was 0.0482 µM, the TGI [7] was 13.5 µM and the GI50 [8] was 0.0533 µM. For the same compound, the TGI [8] was 19.4 µM, the GI50 [9] was 0.0832 µM and the TGI [9] was over 60.4 µM. The GI50 [10] was 0.0789 µM and the TGI [10] was over 55.9 µM.

With `CCc1nc(N)nc(N)c1-c1ccc(Cl)cc1` the GI50 [1] was 36.3 µM, the TGI [1] was over 100 µM and the GI50 [2] was 3.17 µM. The TGI [2] was 37.9 µM and > 100 µM, the GI50 [3] was 59.3 µM and the TGI [3] was > 100 µM and 99.6 µM. It also gave a GI50 [4] of 5.89 µM, a TGI [4] of over 100 µM and a GI50 [5] of 17.4 µM. It also gave a TGI [5] of over 100 µM, a TGI [6] of over 100 µM and a GI50 [7] of 2.85 µM. For the same compound, the TGI [7] was over 100 µM, the GI50 [8] was 5.65 µM and the TGI [8] was over 100 µM. The GI50 [9] was 5.04 µM, the TGI [9] was over 100 µM and the GI50 [10] was 2.82 µM. For the same compound, the TGI [10] was over 100 µM.
